Data: patent US20110257186A1, “COMPOSITIONS AND METHODS FOR TREATING VISUAL DISORDERS” (priority 2010, published 2011)
“Also recorded” adds a separate entry of the source.

System: rat visual cortex
Assay: LTP in visual cortex slice
Settings: rat primary visual cortex brain slices; fEPSP amplitude after theta burst stimulation; drug infused 20 minutes before LTP induction
Source text: The effect of the Ampakine, i.e. benzo[1,2,5]oxadiazol-5-yl-piperidin-1-yl-methanone, in the visual cortex was investigated using brain slices prepared from primary visual cortex to determine if this compound facilitates the induction of long-term potentiation (LTP). LTP is a well established cellular model for synaptic plasticity and the encoding of information. The visual cortex is one synapse removed from the eye and integrates visual signals generated by the retina. It is thus essential for decoding, processing and transforming visual inputs originating in the eye, and proper visual cortical function is necessary for normal vision.
Following decapitation of the anesthetized rat, the brain was rapidly removed and immersed in ice-cold artificial cerebrospinal fluid (ACSF) containing (in mM) NaCl 124, KCl 3, KH2PO4 1.25, CaCl2 3.4, MgSO4 2.5, NaHCO3 26, and D-glucose 10. A block of visual cortex was created by removing the frontal ⅔ portion of the brain and the cerebellum. […] This is repeated 2 additional times with a 1 minute inter-train interval, and the level of LTP was recorded for at least 30 min. Changes in amplitude of the synaptic response were used to measure the extent of LTP, since the amplitude was determined to be the more consistent parameter than the slope of the response. […] LTP was recorded for at least 30 min after induction.

O=C(c1ccc2nonc2c1)N1CCCCC1 [benzo[1,2,5]oxadiazol-5-yl-piperidin-1-yl-methanone]
enhancement of visual cortex long-term potentiation (LTP): dose-dependent facilitation of long-term potentiation in rat visual cortex; also recorded: marked and dose-dependent enhancement of visual cortex LTP
